This is an account of results in patent publication US4110465A, “7-Amino and 7-alkanoylamino 2-oxo-3-phenylindolines” (Eli Lilly and Company, priority 1977, dated 1978).

Experiment [1] has as its system erythema produced by an ultra-violet light source on guinea pig skin. Description: UV-light-induced erythema blocking on guinea pig skin (anti-inflammatory activity). In kind it is in vivo, albino guinea pigs. Particulars: Cavia porcellus; oral, suspension in 1 percent aqueous sodium carboxymethylcellulose; groups of 4 guinea pigs; obtained directly or by extrapolation; read-out: ED50 for erythema blocking (dose producing 50 percent inhibition of the erythemic response). The procedure: The compounds of this invention are anti-inflammatory and anti-thrombotic agents. […] Int. Pharmacodyn, 116, 261 (1958). In this procedure, albino guinea pigs weighing 225-300 gms. are shaved on the back and chemically depilated 18 to 20 hours before initiation of the test procedures. Animals in groups of 4 are given predetermined dosages of the drug under test with one group being maintained as a control group. The drug is administered by the oral route as a suspension in 1 percent aqueous sodium carboxymethylcellulose. The control animals receive only the suspending medium. After having being given the drug or suspension medium only, each group of animals is exposed to a high-intensity ultra-violet light for a predetermined period of time, the ultra-violet light being placed in contact with the depilated skin area on the animals' back. A gummed paper reinforcement is affixed to the lamp lens to provide an unexposed area of contrast for grading the light-produced erythema.
Beginning one hour after exposure and thereafter an half-hour intervals for another 1.5 hours, a trained observer grades erythema using an arbitrary scoring system based upon the degree of contrast and redness formed. […] The following scoring system is used:
Total scores from each treatment group of four guinea pigs are compared to the control treatment, and the percent inhibition calculated as follows: [formula] […]

Experiment [2] has as its system collagen-induced platelet aggregation. Briefly: collagen-induced platelet aggregation (P.A.) inhibition after oral dosing. In kind it is in vivo, guinea pigs. To be noted: 2 doses at time zero and 2 hours later, blood removed 60 minutes after last dose, 0.05 ml. of 1:45 collagen dilution. The protocol:
Certain of the compounds of this invention are also platelet aggregation inhibitors and the results of testing for this activity are also included in Table I. The platelet aggregation test used involves the effect of a drug upon collagen-induced platelet aggregation using the method of Hermann et al., Proc. Soc. Exp. Biol. Med. 136, 548 (1972). According to this procedure, 300-400 g. guinea pigs are used and the compound is administered by the oral route in 2 doses, at time zero and again 2 hours later, at a series of graded dose levels to groups of 4 pigs each. One group is maintained as a control group. Blood is removed by heart puncture 60 minutes after the last dose, and a platelet-rich plasma prepared therefrom. A stock collagen solution is prepared by solubilizing bovine Achilles tendon with acetic acid. The stock solution contains 0.25 percent collagen, has a pH of 2.8 and is kept under refrigeration. […] (Activity was determined by computor printout with significance at the 95 percent confidence level being attained at about the 50 percent inhibition level). In Table 1, column 1 gives the name of the compound, column 2, the ED50 for erythema blocking calculated as set forth above and column 3, the lowest active dose in the platelet aggregation test.

Usually ED50 stands for the dose that gives a 50% effect, or the effect in half of the subjects.

Regarding `Nc1cccc2c1NC(=O)C2c1ccccc1` (stereo not shown) [2-oxo-3-phenyl-7-aminoindoline], the ED50 in experiment [1] was 10.2 mg/kg. Besides, the “P.A., lowest active dose in the platelet aggregation test (active = about 50% inhibition of collagen-induced aggregation)” value in experiment [2] is on record as 100 mg/kg × 2.
Taken in the same sequence, the figures for `CC(=O)Nc1cccc2c1NC(=O)C2c1ccccc1` (stereo not shown) [N-(2-oxo-3-phenyl-7-indolinyl)-acetamide, N-(2-oxo-3-phenyl-7-indolinyl)acetamide] were 20 mg/kg and 3.12 mg/kg × 2.
